Experimental data as given in US8710073B2, “Anti-infective derivatives, method for the production thereof, pharmaceutical compositions containing same and uses of said derivatives in treatment” (Centre National de la Recherche Scientifique (C.N.R.S.), priority 2008, dated 2014).

Tests used:
[1] = tested on: Corynebacterium glutamicum; assay: Growth inhibition of Corynebacterium glutamicum, MTT test
Description: The Corynebacterium glutamicum strain is cultivated in a BHI (Brain-Heart Infusion) medium at 30° C. with stirring at 200 rpm. The DO of the culture is measured directly and set to a value of 0.002-0.003 by dilution in the LB culture medium. C. glutamicum also grows in the LB medium, and this is used instead of BHI, which is strongly coloured and interferes with the DO reading at 570 nm.
The stock solutions are prepared in DMSO at a concentration 100 times greater than the highest concentration to be tested.
The test is carried out in the same way as the test on M. smegmatis.
The tests are carried out on 96-well NUNC microplates (Merck-eurolab). All the concentrations were tested at least twice.
Each well contains 100 μl of compound in solution in the culture medium (LB with 1% final DMSO). Subsequently, 100 μl of bacterial suspension having DO 0.002 at 650 nm are added.
The plate is sealed using parafilm and incubated at 30° C. for C. glutamicum. After two hours of incubation, 50 μl of a 1 mg/ml solution of tetrazolium salt (MTT) are added to each well. After one hour of incubation at 30° C. for C. glutamicum, 100 μl of lysis buffer are added to each well and the plate is left with stirring at ambient temperature until the solution is fully homogeneous.
The optical density is measured at 570 nm with a μQuant 96-well microplate spectrophotometer, Bio-tek Instruments, Inc.

InhA enoylreductase = InhA enoylreductase (Mycobacterium tuberculosis, UniProt P9WGR1); assay: InhA enoylreductase activity inhibition test (NADH disappearance at 340 nm); assay type: biochemical; conditions: read-out: InhA inhibition percentage; for inhibition at 10 µM: inhibitor concentration 10 μM, preincubation time 5 min
Description: The InhA protein was expressed in E. coli after cloning the inhA gene in a plasmidic vector of the pET type. Growing the resulting strain and inducing expression of the inhA gene with 1 mM IPTG (isopropyl β-D-thiogalactoside) leads to the production of water-soluble InhA protein at approximately 28.5 KDa (28,368 Da) (monomeric) which is purified by standard protein purification techniques. The enzyme is present in the form of a tetramer in solution and is kept in 50 mM Hepes buffer, 50% glycerol at −20° C.
The InhA enoylreductase activity is monitored by UV spectrometry, by monitoring the disappearance of the signal of the reduced cofactor NADH at 340 nm as a function of time. The percentage inhibition is calculated by subtracting from 100 the ratio of the initial speeds (V) measured during kinetics with and without inhibitor, multiplied by 100:% inhibition=100−(Vinhib/Vblank*100). The initial speed is measured by drawing the tangent to the curve DO=f(time) at time zero.
The enzymatic reaction is carried out in a final volume of 100 μl (in a quartz vessel, optical path 1 cm). The absorption of each reaction mixture is determined with a UVIKON 293 spectrophotometer (Bio-Tek Kontron Instruments) connected to a thermostatically controlled bath which makes it possible to maintain the temperature of the vessel at 25° C. A baseline is produced during preincubation immediately before measurements begin. The measurements are carried out over 3 min after a preincubation of 5 min or 2 h.
The preincubation is carried out in 90 μl (total volume) of a solution of PIPES buffer 30 mM, NaCl 150 mM, pH=6.8 at 25° C. containing 100 nM of InhA, 100 μM, 20 μM or 10 μM of the compound to be tested (or 500 nM of the pool of INH-NAD adducts constituting the control inhibitors) and 200 μM of NADH. After 5 min or 2 h of preincubation, the addition of 35 μM of the substrate 2-trans-decenoyl-CoA initiates the reaction. […]

Sequence of InhA enoylreductase (P9WGR1 whole entry, looked up): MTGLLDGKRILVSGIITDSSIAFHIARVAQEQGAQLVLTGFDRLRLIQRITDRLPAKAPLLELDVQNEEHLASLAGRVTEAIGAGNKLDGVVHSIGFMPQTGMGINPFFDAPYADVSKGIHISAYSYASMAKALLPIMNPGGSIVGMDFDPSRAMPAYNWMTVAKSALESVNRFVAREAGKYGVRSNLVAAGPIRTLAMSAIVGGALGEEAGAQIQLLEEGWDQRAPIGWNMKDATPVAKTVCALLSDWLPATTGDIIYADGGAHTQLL

How did the IC50 ([1]; Corynebacterium glutamicum, read-out: CI50 (concentration corresponding to 50% inhibition) on the bacterial strain C. glutamicum) turn out when NNC(=O)c1ccncc1 [Isoniazide] was run?
The IC50 was greater than 5 mM.

What about the “activity on C. glutamicum” value ([1]; at 5 mM) of the same compound?
Its value is “does not exhibit any activity”.

Which inhibition at 10 µM (InhA enoylreductase) does the source give for CCCCCCCCCCCCc1cccc(C2(O)NC(=O)c3c[n+](CC(=O)OCC)ccc32)c1 (centres unmarked) [Example 3, 1-(3-dodecylphenyl)-5-[2-(ethyloxy)-2-oxoethyl]-1-hydroxy-3-oxo-1,2-dihydropyrrolo[3,4-c]pyridinium bromide] here?
The inhibition at 10 µM was 19%.

CCCCCCCCCCCCc1cccc(C(=O)C2C=CN(CC(=O)OCC)C=C2C(N)=O)c1 (centres unmarked) [Example 4, ethy 3-aminocarbonyl-[4-(3-dodecylbenzoyl)-1,4-dihydro-pyridin-1-yl]acetate] was tested. Which inhibition at 10 µM (InhA enoylreductase) did it give?
Its inhibition at 10 µM is 25%.

With CCCCCCCCCCCCOc1cccc(C2(O)NC(=O)c3cnccc32)c1 (centres unmarked) [Example 2, 1-(3-dodecyloxyphenyl)-1-hydroxy-1,2-dihydropyrrolo[3,4-c]pyridin-3-one] as the compound, how does the inhibition at 100 µM (InhA enoylreductase; inhibitor concentration 100 μM, preincubation time 2 h (*)) read?
Its inhibition at 100 µM is 80%.
